Assay results reported in patent publication US9708340B2, “Urea derivatives and their use as fatty-acid binding protein (FABP) inhibitors” (Hoffmann-La Roche Inc., priority 2013, dated 2017).

Tests used:
ob/ob mice = conditions: cited from earlier work
ApoE KO mice = conditions: cited from earlier work
mice under HF diet = conditions: cited from earlier work
human FABP5 (huFABP5) = human FABP5 (huFABP5) (Homo sapiens (Human), UniProt Q01469); assay: Tb TR-FRET assay, binding of Bodipy labeled fatty acid to His6 tagged huFABP5; conditions: 50 nM FABP protein, […] Bodipy labeled fatty acid; read-out: IC50 h-fabp5-ecoli-r
Sequence of human FABP5 (huFABP5) (Q01469 whole entry): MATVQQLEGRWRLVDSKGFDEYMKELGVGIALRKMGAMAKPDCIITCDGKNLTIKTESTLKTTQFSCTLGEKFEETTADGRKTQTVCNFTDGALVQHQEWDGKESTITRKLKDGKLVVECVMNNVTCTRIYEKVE

human FABP4 (huFABP4) = human FABP4 (huFABP4) (Homo sapiens (Human), UniProt P15090); assay: Tb TR-FRET assay, binding of Bodipy labeled fatty acid to His6 tagged huFABP4; conditions: 50 nM FABP protein, […] Bodipy labeled fatty acid; read-out: IC50 h-fabp4-ecoli-r
Sequence of human FABP4 (huFABP4) (P15090 whole entry): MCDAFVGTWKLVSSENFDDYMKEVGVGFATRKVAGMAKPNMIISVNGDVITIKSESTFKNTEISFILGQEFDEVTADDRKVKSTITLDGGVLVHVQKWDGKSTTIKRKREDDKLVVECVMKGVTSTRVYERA

| Structure (SMILES) | IC50 (human FABP5 (huFABP5)) [µM] | IC50 (human FABP4 (huFABP4)) [µM] | also measured |
| --- | --- | --- | --- |
| CCc1c(-c2ccccc2)c(-c2ccccc2)nn1-c1ccccc1-c1cccc(OCC(=O)O)c1 [BMS309403] |  |  | glucose uptake in muscle and adipose (ob/ob mice; clamp study in ob/ob mice): increased; hepatic glucose production (ob/ob mice; clamp study in ob/ob mice): reduction; body weight and energy consumption (ob/ob mice; ob/ob mice): no change; hepatic steatosis (ob/ob mice; ob/ob mice): reduction; atherosclerotic placques formation (ApoE KO mice): decrease |
| O=C(O)[C@H]1CCCN1C(=O)Nc1ccccc1Oc1ccccc1 [Compound 3] |  |  | insulin and glucose tolerance (mice under HF diet): no improvement; plasma triglyceride and free fatty acid (mice under HF diet): reduction |
| O=C(O)[C@H]1CSCN1C(=O)Nc1ccccc1-c1ccccc1 [Example 8, (S)-3-(Biphenyl-2-ylcarbamoyl)-thiazolidine-4-carboxylic acid] | > 50 | 0.33 |  |
| O=C(O)[C@H]1CCCN1C(=O)Nc1cc(Cl)ccc1-c1ccncc1 [Example 58, (R)-1-(5-chloro-2-(pyridin-4-yl)phenylcarbamoyl)pyrrolidine-2-carboxylic acid] | > 50 | 2 |  |
| O=C(O)[C@H]1CCCN1C(=O)Nc1cc(F)cc(F)c1-c1ccccc1 [Example 14, (R)-1-(4,6-difluorobiphenyl-2-ylcarbamoyl)pyrrolidine-2-carboxylic acid] | > 6.86 | 0.31 |  |
| CC1(C(=O)O)CCCN1C(=O)Nc1ccccc1-c1ccccc1 (centres unmarked) [Example 15, 1-(biphenyl-2-ylcarbamoyl)-2-methylpyrrolidine-2-carboxylic acid] | > 50 | 0.86 |  |
| O=C(O)[C@H]1CCCN1C(=O)Nc1cc(Cl)ccc1-c1csc2ccccc12 [Example 53, (R)-1-(2-(benzo[b]thiophen-3-yl)-5-chlorophenylcarbamoyl)pyrrolidine-2-carboxylic acid] | 42.2 | 0.34 |  |
| O=C(O)[C@H]1CCCN1C(=O)Nc1cc(F)ccc1-c1ccccc1 [Example 16, (R)-1-(4-fluorobiphenyl-2-ylcarbamoyl)pyrrolidine-2-carboxylic acid] | > 50 | 1.07 |  |
| O=C(O)[C@H]1CCCN1C(=O)Nc1c(-c2ccccc2)sc2ncccc12 [Example 22, (R)-1-(2-phenylthieno[2,3-b]pyridin-3-ylcarbamoyl)pyrrolidine-2-carboxylic acid] | > 50 | 1.66 |  |
| O=C(O)C1SCCN1C(=O)Nc1ccccc1-c1ccccc1 (centres unmarked) [Example 7, 3-(Biphenyl-2-ylcarbamoyl)-thiazolidine-2-carboxylic acid] | > 50 | 9.82 |  |
